Columns and labels:
scopolamine-treated rats = experiment: Passive avoidance (PA) in scopolamine-treated rats; type: in vivo, Sprague-Dawley rats
Procedure: Naive male Sprague-Dawley rats, three months old (obtained from Charles River Breeding, U.K.), were used (weighing 200-300 g.). The passive avoidance (PA) test is according to Fisher et al, Neurosci. Lett. 102: 325 (1989), except that in these rats amnesia was induced by scopolamine.
Eight groups of 17-20 naive rats were used. Each group was divided into two subgroups of 7-10 rats each: subgroup 1 was injected with scopolamine HBr (0.5 mg./kg. in saline, s.c., 15 min. before the shock) and subgroup 2 was injected with saline (1 ml./kg., s.c., 15 min. before the shock). Seven of the groups were treated within one minute after the shock with one of the following doses of the tested compound: 0.1, 0.5, 1, 3, 5, 8, 10 mg./kg. (in saline, i.p.) and one group received saline (1 ml./kg., i.p.).
Eight groups of 18-20 naive rats each were used. Each group was divided into two subgroups of 9-10 rats each: subgroup 1 was injected with scopolamine HBr (0.5 mg./kg. in saline, s.c., 15 min. before the shock) and subgroup 2 was injected with saline (1 ml./kg., s.c., 15 min. before the shock). Seven of the groups were treated, within one minute after the shock, with one of the following doses of AF125(N): 0.1, 0.5, 1, 3, 5, 8 or 10 mg./kg. (in saline, i.p.) and one group received saline (1 ml./kg., i.p.).

AF64A-treated rats [1] = experiment: Morris water maze (MWM) in AF64A-treated rats; type: in vivo; details: i.p.
Procedure: This animal model, which mimics the cholinergic hypofunction and cognitive impairments in SDAT was used as described in Fisher et al (J. Pharmacol. Exptl. Therap, 1991, in the press).
Rats were injected with AF64A (3 nmole/2 µl./side, icv) or saline (2 µl., icv), in presence of phosphate buffer or AF151.

AF64A-treated rats [2] = experiment: Passive avoidance (PA) in AF64A-treated rats; type: in vivo; details: for Retention latency after 72 hours: i.p.
Excerpt: This animal model mimics to a certain extent the cholinergic hypofunction in SDAT (Fisher and Hanin, Ann. Rev. Pharmacol. Toxicol. 26: 161-181, 1986). The method described in Fisher et al (J. Pharmacol. Exptl. Therap., 1991, in the press) and in Fisher et al (Neurosci. Lett. 102: 325-331, 1989) was used here.
No significant differences were found among the different groups of animals tested in the initial latency test; the initial latency ranged from 20 and 31 seconds. In all the experiments using AF150, the compound as free base was dissolved in 10 mM phosphate buffer having pH 7.35.

AF64A-treated rats [3] = experiment: 8-arm radial maze (RAM) with delay procedure in AF64A-treated rats, Part B; type: in vivo
Procedure: This animal model mimics the cholinergic hypofunction and cognitive dysfunction in SDAT (Fisher and Hanin, loc cit; Fisher et al, Neurosci. Lett. 102: 325-331, 1989); the method described in the latter publication was used here.
In brief, saline- and A64A-pretreated rats (3 nmole/2 µl./side, icv) were used in these experiments, 2.5 months after the lesion. The experiment was carried out over a three-week period. During the first week the rats were trained to find food pellets in all eight arms of the maze. After learning the task, the rats were trained using the delay procedure. During a predelay session, four of the arms of the maze were closed and the rats collected the food pellets from the remaining four opened arms. During this period working memory errors were recorded. Following a two hour delay, the rats were returned to the maze. All of the arms of the maze were now open but only four of them, those which were closed during the pre-delay session, were baited. The rats had to collect the food pellets without entering any previously visited arms, whether during the predelay or the post-delay session. After reaching a baseline level the rats were tested for their performance during the third week of the experiment in which either 10mM phosphate buffer (pH 7.3), or AF150 (0.07 or 1.0 mg./kg. free base dissolved in 10 mM phosphate buffer, pH 7.3), were administered i.p., immediately after the pre-delay session, once a day for five days.

[4] = post-shock AF125 0.1 mg/kg i.p., pre-shock Saline
[5] = post-shock AF125 0.1 mg/kg i.p., pre-shock Scopolamine
[6] = post-shock AF125 0.5 mg/kg i.p., pre-shock Saline
[7] = post-shock AF125 0.5 mg/kg i.p., pre-shock Scopolamine
[8] = post-shock AF125 1.0 mg/kg i.p., pre-shock Saline
[9] = post-shock AF125 1.0 mg/kg i.p., pre-shock Scopolamine
[10] = post-shock AF125 3.0 mg/kg i.p., pre-shock Saline
[11] = post-shock AF125 3.0 mg/kg i.p., pre-shock Scopolamine
[12] = post-shock AF125 5.0 mg/kg i.p., pre-shock Saline
[13] = post-shock AF125 5.0 mg/kg i.p., pre-shock Scopolamine
[14] = post-shock AF125 8.0 mg/kg i.p., pre-shock Saline
[15] = post-shock AF125 8.0 mg/kg i.p., pre-shock Scopolamine
[16] = post-shock AF125 10.0 mg/kg i.p., pre-shock Saline
[17] = post-shock AF125 10.0 mg/kg i.p., pre-shock Scopolamine

CC1=NCC2(CN3CCC2CC3)O1 (racemic) [AF125, 2-Methyl-spiro(1,3 oxazoline-5,3')quinuclidine]
side effects (scopolamine-treated rats; 3 mg./kg. i.p., pre-shock saline treated rats): slight diarrhea | side effects (scopolamine-treated rats; 5 mg./kg. i.p., pre-shock saline treated rats): stronger diarrhea | side effects (scopolamine-treated rats; 8 and 10 mg./kg. i.p., pre-shock saline treated rats): severe diarrhea with lacrimation | Initial latency, Mean (scopolamine-treated rats; [4]): 49.5 | Retention latency, Mean (scopolamine-treated rats; [4]): 572.8 | Initial latency, Mean (scopolamine-treated rats; [5]): 33.6 | Retention latency, Mean (scopolamine-treated rats; [5]): 128.8 | Initial latency, Mean (scopolamine-treated rats; [6]): 42.0 | Retention latency, Mean (scopolamine-treated rats; [6]): 600.0 | Initial latency, Mean (scopolamine-treated rats; [7]): 47.4 | Retention latency, Mean (scopolamine-treated rats; [7]): 222.7 | Initial latency, Mean (scopolamine-treated rats; [8]): 36.0 | Retention latency, Mean (scopolamine-treated rats; [8]): 555.8 | Initial latency, Mean (scopolamine-treated rats; [9]): 23.3 | Retention latency, Mean (scopolamine-treated rats; [9]): 261.2 | Initial latency, Mean (scopolamine-treated rats; [10]): 51.9 | Retention latency, Mean (scopolamine-treated rats; [10]): 530.4 | Initial latency, Mean (scopolamine-treated rats; [11]): 47.3 | Retention latency, Mean (scopolamine-treated rats; [11]): 296.0 | Initial latency, Mean (scopolamine-treated rats; [12]): 34.7 | Retention latency, Mean (scopolamine-treated rats; [12]): 426.7 | Initial latency, Mean (scopolamine-treated rats; [13]): 51.3 | Retention latency, Mean (scopolamine-treated rats; [13]): 227.3 | Initial latency, Mean (scopolamine-treated rats; [14]): 41.2 | Retention latency, Mean (scopolamine-treated rats; [14]): 594.1 | Initial latency, Mean (scopolamine-treated rats; [15]): 53.9 | Retention latency, Mean (scopolamine-treated rats; [15]): 294.9 | Initial latency, Mean (scopolamine-treated rats; [16]): 46.3 | Retention latency, Mean (scopolamine-treated rats; [16]): 498.3 | Initial latency, Mean (scopolamine-treated rats; [17]): 45.9 | Retention latency, Mean (scopolamine-treated rats; [17]): 288.3 | side effects (scopolamine-treated rats; pre-shock scopolamine treated rats): did not exhibit any side effects

CC1=NC2(CCN(C)CC2)CO1 [AF151, 1-methylpiperidine-4-spiro-4'-(2'-methyl-1',3'-oxazoline)]
Path length (AF64A-treated rats [1]; icv AF64A, AF151 0.07 mg./kg., Block 1): 729.0± 98.2 cm. | Path length (AF64A-treated rats [1]; icv AF64A, AF151 0.07 mg./kg., Block 2): 918.1±124.3 cm. | Path length (AF64A-treated rats [1]; icv AF64A, AF151 0.07 mg./kg., Block 3): 743.1±151.1 cm. | Path length (AF64A-treated rats [1]; icv AF64A, AF151 0.07 mg./kg., Block 4): 574.9±101.1 cm. | Path length (AF64A-treated rats [1]; icv AF64A, AF151 0.07 mg./kg., Reversal): 602.9± 97.9 cm. | Path length (AF64A-treated rats [1]; icv AF64A, AF151 0.3 mg./kg., Block 1): 862.3±151.0 cm. | Path length (AF64A-treated rats [1]; icv AF64A, AF151 0.3 mg./kg., Block 2): 843.5±197.5 cm. | Path length (AF64A-treated rats [1]; icv AF64A, AF151 0.3 mg./kg., Block 3): 539.9±146.2 cm. | Path length (AF64A-treated rats [1]; icv AF64A, AF151 0.3 mg./kg., Block 4): 297.9± 60.4 cm. | Path length (AF64A-treated rats [1]; icv AF64A, AF151 0.3 mg./kg., Reversal): 390.5± 77.0 cm. | Path length (AF64A-treated rats [1]; icv AF64A, AF151 1.0 mg./kg., Block 1): 656.6±107.6 cm. | Path length (AF64A-treated rats [1]; icv AF64A, AF151 1.0 mg./kg., Block 2): 802.7±111.1 cm. | Path length (AF64A-treated rats [1]; icv AF64A, AF151 1.0 mg./kg., Block 3): 795.0±131.3 cm. | Path length (AF64A-treated rats [1]; icv AF64A, AF151 1.0 mg./kg., Block 4): 434.4± 33.0 cm. | Path length (AF64A-treated rats [1]; icv AF64A, AF151 1.0 mg./kg., Reversal): 606.0± 60.0 cm. | Path length (AF64A-treated rats [1]; icv Sal., AF151 0.07 mg./kg., Block 1): 490.6± 74.0 cm. | Path length (AF64A-treated rats [1]; icv Sal., AF151 0.07 mg./kg., Block 2): 562.9± 92.7 cm. | Path length (AF64A-treated rats [1]; icv Sal., AF151 0.07 mg./kg., Block 3): 429.2± 76.5 cm. | Path length (AF64A-treated rats [1]; icv Sal., AF151 0.07 mg./kg., Block 4): 278.0± 44.0 cm. | Path length (AF64A-treated rats [1]; icv Sal., AF151 0.07 mg./kg., Reversal): 453.9± 76.0 cm. | Path length (AF64A-treated rats [1]; icv Sal., AF151 0.3 mg./kg., Block 1): 517.8± 45.3 cm. | Path length (AF64A-treated rats [1]; icv Sal., AF151 0.3 mg./kg., Block 2): 365.1± 58.4 cm. | Path length (AF64A-treated rats [1]; icv Sal., AF151 0.3 mg./kg., Block 3): 424.6± 92.3 cm. | Path length (AF64A-treated rats [1]; icv Sal., AF151 0.3 mg./kg., Block 4): 346.7± 64.4 cm. | Path length (AF64A-treated rats [1]; icv Sal., AF151 0.3 mg./kg., Reversal): 306.8± 43.3 cm. | Path length (AF64A-treated rats [1]; icv Sal., AF151 1.0 mg./kg., Block 1): 607.4± 90.6 cm. | Path length (AF64A-treated rats [1]; icv Sal., AF151 1.0 mg./kg., Block 2): 440.2± 90.1 cm. | Path length (AF64A-treated rats [1]; icv Sal., AF151 1.0 mg./kg., Block 3): 408.1± 97.1 cm. | Path length (AF64A-treated rats [1]; icv Sal., AF151 1.0 mg./kg., Block 4): 233.8± 30.6 cm. | Path length (AF64A-treated rats [1]; icv Sal., AF151 1.0 mg./kg., Reversal): 450.0± 93.5 cm.

CC1=NCC2(CCN(C)CC2)O1 [AF150, 2-Methyl-spiro(1,3-oxazoline-5,4')-1'-methylpiperidine]
Retention latency after 72 hours (AF64A-treated rats [2]; AF150 0.1 mg./kg., rats treated with AF64A (3 nmole/2µl./side, icv)): 449.5 ± 52.1 s | Retention latency after 72 hours (AF64A-treated rats [2]; AF150 0.1 mg./kg., rats treated with saline): 511.8 ± 45.7 s | Retention latency after 72 hours (AF64A-treated rats [2]; AF150 0.2 mg./kg., rats treated with AF64A): 481.1 ± 54.3 s | Retention latency after 72 hours (AF64A-treated rats [2]; AF150 0.2 mg./kg., rats treated with saline): 479.1 ± 57.2 s | Retention latency after 72 hours (AF64A-treated rats [2]; AF150 1.0 mg./kg., rats treated with AF64A): 600.0 ± 0 s | Retention latency after 72 hours (AF64A-treated rats [2]; AF150 1.0 mg./kg., rats treated with saline): 571.6 ± 28.4 s | retention latency (AF64A-treated rats [2]; administered orally at 0.2 and 1.0 mg./kg., free base, AF64A-treated rats (not shown)): improved significantly | Working memory errors (session I) (AF64A-treated rats [3]; AF150 0.07 mg./kg., i.p. group, AF64A rats, week (pre)II, before treatment): 3.33±1.18 | Working memory errors (session I) (AF64A-treated rats [3]; AF150 0.07 mg./kg., i.p. group, Sal. rats, week (pre)II, before treatment): 0.33±0.12 | Working memory errors (session I) (AF64A-treated rats [3]; AF150 0.07 mg./kg., i.p., AF64A rats, week III): 3.75±1.04 | Working memory errors (session I) (AF64A-treated rats [3]; AF150 0.07 mg./kg., i.p., Sal. rats, week III): 0.18±0.07 | Working memory errors (session I) (AF64A-treated rats [3]; AF150 1.0 mg./kg., i.p. group, AF64A rats, week (pre)II, before treatment): 3.00±0.94 | Working memory errors (session I) (AF64A-treated rats [3]; AF150 1.0 mg./kg., i.p. group, Sal. rats, week (pre)II, before treatment): 0.11±0.05 | Working memory errors (session I) (AF64A-treated rats [3]; AF150 1.0 mg./kg., i.p., AF64A rats, week III): 4.22±1.76 | Working memory errors (session I) (AF64A-treated rats [3]; AF150 1.0 mg./kg., i.p., Sal. rats, week III): 0.13±0.07
